Patent publication US20090227799A1 (priority 2004, published 2009)
Values after ≈ are worked out from the molar mass of the structure shown.

Each molecule was assayed on opfGWT1 expressing yeast (assay: Measurement of antimalarial agent activity using opfGWT1-expressing yeast (growth inhibition, MIC)). Conditions: Saccharomyces cerevisiae, 48 h, read-out: MIC (μg/m1) opfGWT1 […]; minimum concentration at which turbidity (660 nm) was 0.1 or less; SD culture medium, 96 well plate, 30° C. for 2 days; final highest concentration 25 μg/ml.
Format: cell-based
Description: Compounds having antimalarial activity were screened, using the opfGWT1 expressing yeast, which expresses the malaria protozoa GWT1 gene. The opfGWT1 expressing yeast was prepared according to the methods described in Example 1 to Example 3 of WO 2004/048567.
The test compound was serially diluted twice in SD culture medium (Sabouraud-dextrose culture medium) so that the final highest concentration was 25 μg/ml and dispensed into a 96 well plate so as to obtain 50 μl/well. An overnight culture solution of the opfGWT1 expressing yeast diluted to 1/1000 was added therein in the amount of 50 μl/well addition, the plate was incubated at 30° C. for 2 days, then turbidity at 660 nm was measured.
With `Nc1ncccc1C(=O)NCc1ccc(Oc2ccccc2)s1` [Reference Example A-67, 2-Amino-N-(5-phenoxy-thiophen-2-ylmethyl)-nicotinamide] the MIC was 12.5 µg/mL (≈ 38.4 µM).
In the case of `CCCCOc1ccc(CNC(=O)c2ccc(COC)nc2N)cc1` [Reference Example A-188, 2-Amino-N-(4-butoxy-benzyl)-6-methoxymethyl-nicotinamide], the MIC was 6.25 µg/mL (≈ 18.2 µM).
`CC(=O)c1ccc(C(=O)NCc2ccc(Oc3ccccc3)s2)c(N)n1` [Reference Example A-98, 6-Acetyl-2-amino-N-(5-phenoxy-thiophen-2-ylmethyl)-nicotinamide] showed an MIC of 12.5 µg/mL (≈ 34 µM).
`Nc1ncccc1C(=O)NCc1ccc(Oc2ccc(F)cc2)s1` [Reference Example A-69, 2-Amino-N-(5-(4-fluoro-phenoxy)-thiophen-2-ylmethyl)-nicotinamide] gave an MIC of 25 µg/mL (≈ 72.8 µM).
For `CCCCOCc1ccc(CNC(=O)c2ccc(COC)nc2N)cc1` [Reference Example A-182], the MIC was 6.25 µg/mL (≈ 17.5 µM).
`Nc1ncccc1C(=O)NCc1ccc(Oc2cccc(F)c2)s1` [Reference Example A-68, 2-Amino-N-(5-(3-fluoro-phenoxy)-thiophen-2-ylmethyl)-nicotinamide] was tested, and the MIC was 12.5 µg/mL (≈ 36.4 µM).
Work on `CCOCCNc1ccc(C(=O)NCc2ccc(Oc3ccccc3)s2)c(N)n1` [Reference Example A-105, 2-Amino-6-(2-ethoxy-ethylamino)-N-(5-phenoxy-thiophen-2-ylmethyl)-nicotinamide] yielded an MIC of 25 µg/mL (≈ 60.6 µM).
For `Nc1ncccc1C(=O)NCc1ccc(Cc2cccc(Cl)c2)o1` [Reference Example A-4, 2-Amino-N-(5-(3-chloro-benzyl)-furan-2-ylmethyl)-nicotinamide], the MIC was 6.25 µg/mL (≈ 18.3 µM).
In the case of `Nc1ncccc1C(=O)NCc1cc(Oc2ccccc2)cs1` [Reference Example A-72, 2-Amino-N-(4-phenoxy-thiophen-2-ylmethyl)-nicotinamide], the MIC was 12.5 µg/mL (≈ 38.4 µM).
`Nc1ncccc1C(=O)NCc1ccc(Cc2cccc(Cl)c2)s1` gave an MIC of 12.5 µg/mL (≈ 34.9 µM).
Molecule `COCc1ccc(C(=O)NCc2ccc(Oc3cccc(F)c3)s2)c(N)n1` [Reference Example A-123, 2-Amino-N-(5-(3-fluoro-phenoxy)-thiophen-2-ylmethyl)-6-methoxymethyl-nicotinamide] has an MIC of 25 µg/mL (≈ 64.5 µM).
Work on `Nc1ncccc1C(=O)NCc1ccc(Oc2cccc(Cl)c2)s1` [Reference Example A-73, 2-Amino-N-(5-(3-chloro-phenoxy)-thiophen-2-ylmethyl)-nicotinamide] yielded an MIC of 6.25 µg/mL (≈ 17.4 µM).
`Nc1nc(CCF)ccc1C(=O)NCc1ccc(Oc2ccccc2)s1` [Reference Example A-177, 2-Amino-6-(2-fluoro-ethyl)-N-(5-phenoxy-thiophen-2-ylmethyl)-nicotinamide] showed an MIC of 25 µg/mL (≈ 67.3 µM).
Work on `Cc1cccc(Oc2ccc(CNC(=O)c3cccnc3N)s2)c1` [Reference Example A-64, 2-Amino-N-(5-m-tolyloxy-thiophen-2-ylmethyl)-nicotinamide] yielded an MIC of 12.5 µg/mL (≈ 36.8 µM).
For `O=C(NCc1ccc(Oc2cccc(F)c2)s1)c1ccc2ncccc2c1` [Reference Example E-65, Quinoline-6-carboxylic acid (5-(3-fluorophenoxy)thiophen-2-ylmethyl)amide], the MIC was 25 µg/mL (≈ 66.1 µM).
In the case of `Nc1ncccc1C(=O)NCc1ccc(Cc2cccc(F)c2)o1` [Reference Example A-6, 2-Amino-N-(5-(3-fluoro-benzyl)-furan-2-ylmethyl)-nicotinamide], the MIC was 25 µg/mL (≈ 76.8 µM).
Work on `C=Cc1ccc(C(=O)NCc2ccc(Oc3ccccc3)s2)c(N)n1` [Reference Example A-168, 2-Amino-N-(5-phenoxy-thiophen-2-ylmethyl)-6-vinyl-nicotinamide] yielded an MIC of 12.5 µg/mL (≈ 35.6 µM).
With `Nc1ccc(C(=O)NCc2ccc(OCc3cccc(Cl)c3)cc2)c(N)n1` [Reference Example A-173, 2,6-Diamino-N-(4-(3-chloro-benzyloxy)-benzyl)-nicotinamide] the MIC was 12.5 µg/mL (≈ 32.6 µM).
In the case of `Nc1ccc(C(=O)NCc2ccc(Oc3ccccc3)s2)c(N)n1` [Reference Example A-54, 2,6-diamino-N-(5-phenoxy-thiophene-2-ylmethyl)-nicotinamide], the MIC was 25 µg/mL (≈ 73.4 µM).
